# Data reported in patent US20070083037A1, “Monkey npy y4 receptor and method of evaluating compound” (priority 2003, published 2007).
# Experiments:
# [1] = tested on: rhesus monkey NPY Y4 receptor (SEQ ID NO: 1); test: Receptor binding assay using rhesus monkey Y4 receptor-expressing COS-7 cell membrane fractions (SEQ ID NO: 1), inhibition of [125I]human PP binding; details: expression vector SEQ ID NO: 1; COS-7 membrane fraction; 59 pM [125I]human PP; read-out: IC50 against specific [125I]human PP binding
# Procedure: (§1) COS-7 cells were transfected with a pEF1/[…]B plasmid vector containing the nucleotide sequence of SEQ ID NO: 1 or 3, using LipofectAmine Plus (Invitrogen). After 48 hours, the cells were recovered, and disrupted in 10 mM MOPS buffer (pH 7.4) containing 20% sucrose, 154 mM NaCl, 10 mM KCl and 0.8 mM CaCl2, using a Polytron homogenizer (Kinematica) while cooling on ice. The obtained homogenate was centrifuged at 1,000×g, 4° C. for 15 minutes, the supernatant was centrifuged at 90,000×g for 50 minutes, and the precipitate was collected. It was then suspended in 5 mM HEPES/Tris buffer (pH 7.4) and then centrifuged again at 90,000×g for 50 minutes, after which the obtained precipitate was collected as the membrane sample. […] After rinsing with 5 mM Tris buffer (pH 7.4) containing 0.3% bovine serum albumin and drying, MicroScint0 (Perkin-Elmer) was added, and a TopCount HTS (Packard) was used to measure the residual radioactivity on the filter.
# [2] = tested on: rhesus monkey NPY Y4 receptor (SEQ ID NO: 3); test: Receptor binding assay using rhesus monkey Y4 receptor-expressing COS-7 cell membrane fractions (SEQ ID NO: 3), inhibition of [125I]human PP binding; details: expression vector SEQ ID NO: 3; COS-7 membrane fraction; 59 pM [125I]human PP; read-out: IC50 against specific [125I]human PP binding
# Procedure: as §1
# [3] = tested on: rhesus monkey NPY Y4 receptor (SEQ ID NO: 3); test: [125I]human PP binding assay using COS-7 cells expressing rhesus monkey Y4 receptor (SEQ ID NO: 3); details: COS-7 cells transfected with SEQ ID NO: 3; 50 pM [125I]human PP; non-specific binding with 1 μM human PP
# Procedure: (§2) COS-7 cells (American Type Culture Collection) were seeded in a 24-well culturing plate at a density of 5×10^4 cells/well, and after 24 hours, they were transfected with a pEF1/V5-HisB plasmid vector containing the nucleotide sequence of SEQ ID NO: 1 or 3 obtained in Example 1 or the same vector without the insert (mock), using Efectene (Qiagen). After culturing for 48 hours, incubation was performed at 37° C. for 30 minutes in 240 μl/well of reaction buffer (Hanks' balanced salt solution containing 20 mM HEPES and 0.2% bovine serum albumin; pH 7.4) to which 50 pM [^125I]human PP (Perkin-Elmer) had been added. After rinsing with ice-cooled reaction buffer, the cells were lysed and recovered with 2M NaOH and the radioactivity was measured with a γ-counter (Packard, Cobra).
# (§3) Non-specific binding was also measured by adding 1 μM human PP to the reaction solution.
# [4] = tested on: rhesus monkey NPY Y4 receptor (SEQ ID NO: 1); test: [125I]human PP binding assay using COS-7 cells expressing rhesus monkey Y4 receptor (SEQ ID NO: 1); details: COS-7 cells transfected with SEQ ID NO: 1; 50 pM [125I]human PP; non-specific binding with 1 μM human PP
# Procedure: as §2, §3
# Sequence of rhesus monkey NPY Y4 receptor (SEQ ID NO: 3) (as listed by the source): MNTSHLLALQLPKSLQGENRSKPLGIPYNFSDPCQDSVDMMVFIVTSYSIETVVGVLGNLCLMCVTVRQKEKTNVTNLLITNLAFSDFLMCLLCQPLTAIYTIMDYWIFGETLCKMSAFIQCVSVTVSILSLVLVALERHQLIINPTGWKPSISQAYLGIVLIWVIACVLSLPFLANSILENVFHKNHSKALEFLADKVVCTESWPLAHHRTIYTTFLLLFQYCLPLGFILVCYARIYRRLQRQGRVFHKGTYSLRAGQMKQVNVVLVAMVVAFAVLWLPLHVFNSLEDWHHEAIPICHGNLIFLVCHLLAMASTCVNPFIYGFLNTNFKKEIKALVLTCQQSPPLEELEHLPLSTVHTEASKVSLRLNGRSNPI
# Sequence of rhesus monkey NPY Y4 receptor (SEQ ID NO: 1) (as listed by the source): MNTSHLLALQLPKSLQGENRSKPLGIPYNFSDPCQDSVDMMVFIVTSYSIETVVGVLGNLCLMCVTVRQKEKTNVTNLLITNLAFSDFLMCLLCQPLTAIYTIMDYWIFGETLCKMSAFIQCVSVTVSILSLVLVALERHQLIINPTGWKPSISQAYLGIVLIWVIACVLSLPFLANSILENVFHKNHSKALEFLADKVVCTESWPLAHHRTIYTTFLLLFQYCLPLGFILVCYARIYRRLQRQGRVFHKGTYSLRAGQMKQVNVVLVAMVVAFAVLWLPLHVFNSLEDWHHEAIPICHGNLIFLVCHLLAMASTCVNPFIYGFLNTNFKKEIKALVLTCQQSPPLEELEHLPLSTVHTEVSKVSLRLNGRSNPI
IC50 [1] [nM],IC50 [2] [nM],Substance,Specific binding [3] [cpm],Specific binding [4] [cpm]
100,97,Neuropeptide-Y [Human NPY],–,–
–,–,[125I]human PP: 125I-labelled human PP radioligand (Perkin-Elmer),1394,1238
